Test results published in US12385017B2, “Acute respiratory distress syndrome therapeutic agent” (LTT Bio-Pharma Co., Ltd., priority 2015, dated 2025).
Like-named read-outs stand apart in the source and are kept apart here.

Experiments:
[1] = test system: reactive oxygen species (ROS)
Procedure: Measurement of reactive oxygen species (ROS) in a mouse was performed by in vivo imaging analysis with some modifications.
An imaging system (Lumazone, in vivo imaging system, SHOSHIN EM, Okazaki, Japan) including a chamber equipped with an electron multiplying CCD camera was used. L-012 (in saline), which is a luminescent probe, was administered to the mouse intravenously at 75 mg/kg.
In the case of the LPS and MV models, the mouse was euthanized 5 minutes after injection of L-012, and the lung thereof was anatomized promptly and imaged (five-minute intervals).
The data were analyzed by using SlideBook6 software (Intelligent Imaging Innovations, Inc., Denver, CO).
CLP operation (Tests A and B), LPS administration (Tests C and D), and MV treatment (Tests E and F) were performed as described above. […] A luminescent probe (L-012) (75 mg/kg) was administered 4 hours after the CLP operation, 6 hours after the LPS administration, and 2 hours after the MV treatment. An abdominal cavity (Test A) or a lung (Tests C and E) of the mouse was imaged using a Lumazone in vivo imaging system. The sum intensity of reactive oxygen species (ROS) was determined by Slide Book6 software (Tests B, D, and F).

[2] = test system: CLP-induced systemic inflammation; experiment: CLP-induced systemic inflammation (plasma inflammatory cytokines); type: in vivo, mouse; conditions: male ICR mice, drug once before CLP, plasma 8 hours after CLP
Procedure: (§1) A mouse was anesthetized with pentobarbital (10 mg/kg, intraperitoneally) and a small abdominal midline incision was made to expose the cecum thereof. Subsequently, the cecum was ligated at approximately 2 cm with a silk thread and punctured twice with an 18 G needle (manufactured by Terumo Corporation). Then, the abdomen was closed.
Sham mice (sham operation group) were subjected to the same operation except the ligation and puncture of the cecum. […]
The levels of BUN and creatinine in blood were measured by using a DRI-CHEM slide and LabAssay creatinine, respectively, according to the protocols. The level of inflammatory cytokines in plasma was measured by an Elisa kit according to the protocol.
A CLP operation or a sham operation was performed on male ICR mice.
Drugs were administered once before the CLP operation or the sham operation. […] Sivelestat (mg/kg) was intraperitoneally administered. EBD (Evans blue dye) (30 mg/kg) was administered intravenously 8 hours after the CLP operation. Plasma samples were prepared and the level of inflammatory cytokines in plasma was measured.
A CLP operation or a sham operation was performed on a male ICR mouse. […] A plasma sample was prepared 8 hours after the CLP investigation and the levels of BUN and creatinine (Test A) and the level of inflammatory cytokines (Test B) were measured.
A CLP operation or a sham operation was performed on a male ICR mouse. NAC (mg/kg) was administered intraperitoneally or unmodified SOD (kU/kg) was administered intravenously, once before the CLP operation. A plasma sample was prepared 8 hours after the CLP operation and the levels of BUN and creatinine (Test A) and the level of inflammatory cytokines (Test B) were measured.

[3] = test system: mechanical ventilator (MV)-induced lung injury; experiment: Mechanical ventilator (MV)-induced lung injury and change of lung mechanics; type: in vivo, mouse; conditions: male ICR mice
Procedure: A mechanical ventilator for small animals was used to induce ventilator-induced lung injury (VILI). After a mouse was anesthetized with pentobarbital (10 mg/kg, intraperitoneally), tracheotomy was performed and an 8 mm metal tube was inserted into the trachea thereof. The mouse was mechanically ventilated with a tidal volume of 17.5 mL/kg, a positive end-expiratory pressure of 0 cm H2O, and a rate of 150 breaths/min.
Total respiratory elastance was measured every 30 minutes for 120 minutes by a snapshot technique.
The data were analyzed by using FlexiVent software (version 5.3 SCIREQ).
(§2) For a quantitative examination of the permeability of an organ, Evans blue (EBD) (30 mg/kg) was administered to the mouse intravenously 2 hours before sacrificing the mouse. Tissue (lung, liver, and kidney) specimens were cut into pieces and incubated with a formaldehyde solution for 24 hours at 60° C. The specimens were centrifuged to obtain supernatants and the quantity of EBD was determined by using absorbance at 620 nm of the specimens.
Firstly, the wet weight of a lung was measured to determine a wet-to-dry weight ratio of the lung. Then, the lung was dried at 60° C. overnight and reweighed to obtain the dry weight thereof.
A tissue specimen was fixed in 10% neutral buffered formalin for 24 hours and then embedded in paraffin before being cut into a section 4 μm thick. […]
All the scanned images were analyzed using NDP-view2 software (Hamamatsu Photonics K.K.) and Image J software. […]
EBD (Evans blue dye) (30 mg/kg) was simultaneously administered intravenously, extracted from the lung 2 hours after the MV treatment, and measured (Test A).
The wet-to-dry weight ratio of the lung was determined 2 hours after the MV treatment (Test B). […]
The lesion area was determined by ImageJ software (Test D).
Total respiratory elastance was measured every 30 minutes for 120 minutes (Test E). […]
The wet-to-dry weight ratio of the lung was determined 2 hours after the MV treatment (Tests A and C). Total respiratory elastance was measured every 30 minutes for 120 minutes (Tests B and D).

[4] = test system: lipopolysaccharide (LPS)-induced lung injury
Procedure: A mouse was anesthetized with isoflurane and 1 mg/kg LPS (in 0.9% NaCl) was administered thereto intratracheally once using a micropipette (P200). […] In the case of sivelestat, 10 or 100 mg/kg of sivelestat (in 0.9% NaCl) was administered intraperitoneally using a 21 G needle.
as §2
BALF was collected by inserting a cannula into a trachea and performing lavage twice with 1 mL of 50 U/mL heparin (in sterile 0.9% NaCl). Usually, about 1.8 mL of BALF was collected from each mouse. The amount of proteins in BALF was determined by a Bradford assay. The level of inflammatory cytokines was determined by the Elisa kit as described above.
A tissue specimen was fixed in 10% neutral buffered formalin for 24 hours and then embedded in paraffin before being cut into a section 4 μm thick. The section was stained firstly with Mayer's hematoxylin and secondly with 1% alcoholic eosin solution (H&E staining). The specimen was mounted with malinol (mounting medium) and scanned using a NanoZoomer-XR digital slide scanner (Hamamatsu Photonics K.K.).
All the scanned images were analyzed using NDP-view2 software (Hamamatsu Photonics K.K.) and Image J software.
LPS (1 mg/kg) or vehicle (control) was administered once into a trachea of a male ICR mouse.
ESD (Evans blue dye) (30 mg/kg) was injected intravenously 6 hours after a CLP operation. Two hours later, ESD was extracted from the lung and liver and the amount thereof was measured (Test A).
A section of the lung tissue was prepared 24 hours after the LPS administration and was subjected to a histopathological examination (H&E staining) (Test B). The lesion area was determined by ImageJ software (Test C). BALF was prepared 48 hours after the LPS administration and the levels of protein (Test D) and inflammatory cytokines (Test E) were determined.

[5] = test system: mice subjected to cecal ligation and puncture technique (CLP technique); conditions: male ICR mice
Procedure: as §1
(§3) Sham mice (sham operation group) were subjected to the same operation except the ligation and puncture of the cecum.

[6] = test system: reactive oxygen species (ROS); experiment: In vivo imaging of reactive oxygen species (ROS), CLP model; set-up: species or system mouse; conditions: drug once before CLP, L-012 75 mg/kg 4 hours after the CLP operation
Procedure: In the case of the CLP model, the mouse was euthanized 2 minutes after injection of L-012, subjected to abdominal midline incision, and imaged (five-minute intervals).
Male ICR mice were subjected to a CLP operation. Dexamethasone (200 μg/mouse) was administered intravenously once before the CLP operation (Tests A and C). Sivelestat (100 mg/kg) was administered intraperitoneally (Tests B and D). […] The sum intensity of ROS was determined by SlideBook6 software (Tests C and D).

[7] = test system: CLP-induced multiple organ failure; experiment: CLP-induced multiple organ failure (Evans blue vascular permeability, BUN, creatinine); type: in vivo, mouse; conditions: male ICR mice, drug once before CLP, plasma 8 hours after CLP
Procedure: as §1, §3
A mouse was anesthetized with isoflurane and 1 mg/kg LPS (in 0.9% NaCl) was administered thereto intratracheally once using a micropipette (P200). […]
as §2, with “Tissue (lung, liver, and kidney) specimens were cut into pieces and incubated with a formaldehyde solution for 24 hours at 60° C.” left out
The levels of BUN and creatinine in blood were measured by using a DRI-CHEM slide and LabAssay creatinine, respectively, according to the protocols. The level of inflammatory cytokines in plasma was measured by an Elisa kit according to the protocol. […]
Drugs were administered once before the CLP operation or the sham operation. […] Two hours later, EBD was extracted from the kidney and liver and measured. […]

[8] = BALF 48 hours after the LPS administration (FIG. 4E)

For “lecithinized superoxide dismutase [PC-SOD]”, the “reactive oxygen species in the lung (sum intensity, L-012)” value ([1]; LPS, PC-SOD i.v. once before LPS, L-012 6 hours after the LPS administration) was “suppressed an increase of reactive oxygen species”, the “reactive oxygen species in the lung (sum intensity, L-012)” value ([1]; MV, PC-SOD i.v. once before MV, L-012 2 hours after the MV treatment) was “suppressed an increase of reactive oxygen species” and the “IL-6 level in plasma” value [2] was “suppressed an increase”. The “TNF-α level in plasma” value [2] was “suppressed an increase”, the “lung edema (wet-to-dry weight ratio of the lung)” value ([3]; drug once immediately before MV, 2 hours after the MV treatment) was “suppressed lung edema” and the “lung injury (histopathological examination, H&E staining; lesion area)” value ([3]; lung section 2 hours after the MV treatment (FIG. 5C, D)) was “suppressed lung injury”. The “lung elastance (total respiratory elastance)” value ([3]; measured every 30 minutes for 120 minutes) was “suppressed an increase in lung elastance”, the “protein in BALF” value ([4]; BALF 48 hours after the LPS administration (FIG. 4D)) was “suppressed an increase of protein” and the “IL-6 in BALF” value [4, 8] was “suppressed an increase”. The “IL-10 in BALF” value [4, 8] was “suppressed an increase”, the “TNF-α in BALF” value [4, 8] was “suppressed an increase” and the “histopathological examination of lung tissue (H&E staining)” value ([4]; lung section 24 hours after the LPS administration (FIG. 4B)) was “suppressed alveolar hemorrhage, leukocyte infiltration, and lung interstitial edema”. For the same molecule, the “lesion area of lung (ImageJ)” value ([4]; lung section 24 hours after the LPS administration (FIG. 4C)) was “reduced a lung disorder area”, the survival rate ([5]; administration 1, 12, 24, and 48 hours after the CLP operation (FIG. 1B)) was “increased the survival rate” and the survival rate ([5]; administration immediately before the CLP operation and 12, 24, and 48 hours after (FIG. 1A)) was “increased the survival rate in a dose-dependent manner”. For the same molecule, the “reactive oxygen species in the abdominal cavity (sum intensity, L-012)” value [6] was “suppressed an increase of reactive oxygen species”, the “BUN (blood urea nitrogen) level” value [7] was “suppressed an increase” and the creatinine level [7] was “suppressed an increase”.

For `CC(C)(C)C(=O)Oc1ccc(S(=O)(=O)Nc2ccccc2C(=O)NCC(=O)O)cc1` [sivelestat, sivelestat sodium hydrate, reference compound], the “IL-6 level in plasma” value [2] was “failed in suppressing an increase” and the “TNF-α level in plasma” value [2] was “failed in suppressing an increase”.
